Holding throughout (assay type): in vivo
Experiment [1] relates to Solanum nigrum (SOLNI). The experiment can be described thus: Post-emergence biological efficacy, glasshouse pot test. The note with it: 312 h, post-emergence, 1,000 g/ha, evaluated after 13 days (100=total damage; 0=no damage), read-out: Percentage damage caused to weed species, SOLNI. How it is done:
(§1) Seeds of Alopecurus myosuroides (ALOMY), Setaria faberi (SETFA), Echinochloa crus-galli (ECHCG), Solanum nigrum (SOLNI), Amaranthus retoflexus (AMARE) and Ipomea hederaceae (IPOHE) were sown in standard soil in pots. After cultivation for 8 days under controlled conditions in a glasshouse (at 24/16° C., day/night; 14 hours light; 65% humidity), the plants were sprayed with an aqueous spray solution derived from the formulation of the technical active ingredient in acetone/water (50:50) solution containing 0.5% Tween 20 (polyoxyethelyene sorbitan monolaurate, CAS RN 9005-64-5) to give a final dose of 1000 or 250 g/ha of test compound.
(§2) The test plants were then grown on under controlled conditions in a glasshouse (at 24/16° C., day/night; 14 hours light; 65% humidity) and watered twice daily. After 13 days the test was evaluated (100=total damage to plant; 0=no damage to plant).

Experiment [2] relates to Setaria faberi (SETFA). Described as above. To be noted: 312 h, post-emergence, 1,000 g/ha, evaluated after 13 days (100=total damage; 0=no damage), read-out: Percentage damage caused to weed species, SETFA. Here is the method: as §1, §2
The test system of experiment [3] is Alopecurus myosuroides (ALOMY). The description is as above. To be noted: 312 h, post-emergence, 1,000 g/ha, evaluated after 13 days (100=total damage; 0=no damage), read-out: Percentage damage caused to weed species, ALOMY. How it is done:
as §1, §2

Experiment [4] deals with Amaranthus retoflexus (AMARE). The description is as above. To be noted: Amaranthus retroflexus, 312 h; post-emergence, 1,000 g/ha, evaluated after 13 days (100=total damage; 0=no damage); read-out: Percentage damage caused to weed species, AMARE. How it is done:
as §1, §2

The test system of experiment [5] is Echinochloa crus-galli (ECHCG). The description is as above. To be noted: 312 h, post-emergence, 1,000 g/ha, evaluated after 13 days (100=total damage; 0=no damage), read-out: Percentage damage caused to weed species, ECHCG. How it is done: as §1, §2
The test system of experiment [6] is Ipomea hederaceae (IPOHE). The experiment is described as above. The note with it: Ipomoea hederacea, 312 h; post-emergence, 1,000 g/ha, evaluated after 13 days (100=total damage; 0=no damage); read-out: Percentage damage caused to weed species, IPOHE. How it is done:
as §1, §2

Experiment [7] concerns Solanum nigrum (SOLNI). The experiment can be described thus: Pre-emergence biological efficacy, glasshouse pot test. To be noted: 312 h, pre-emergence, 1,000 g/ha, evaluated after 13 days (100=total damage; 0=no damage), read-out: Percentage damage SOLNI. How it is done: as §1, with “one day” for “8 days”
(§3) The test plants were then grown under controlled conditions in the glasshouse (at 24/16° C., day/night; 14 hours light; 65% humidity) and watered twice daily. After 13 days the test was evaluated (100=total damage to plant; 0=no damage to plant).

Experiment [8] has as its system Setaria faberi (SETFA). The experiment is described as above. To be noted: 312 h, pre-emergence, 1,000 g/ha, evaluated after 13 days (100=total damage; 0=no damage), read-out: Percentage damage SETFA. Here is the method: as §1, with “one day” for “8 days”
as §3

For experiment [9], the system named is Alopecurus myosuroides (ALOMY). Described as above. The note with it: 312 h, pre-emergence, 1,000 g/ha, evaluated after 13 days (100=total damage; 0=no damage), read-out: Percentage damage ALOMY. How it is done: as §1, with “one day” for “8 days”
as §3

Experiment [10] relates to Amaranthus retoflexus (AMARE). The experiment is described as above. The note with it: Amaranthus retroflexus, 312 h; pre-emergence, 1,000 g/ha, evaluated after 13 days (100=total damage; 0=no damage); read-out: Percentage damage AMARE. How it is done:
as §1, with “one day” for “8 days”
as §3

For experiment [11], the system named is Echinochloa crus-galli (ECHCG). The experiment is described as above. The note with it: 312 h, pre-emergence, 1,000 g/ha, evaluated after 13 days (100=total damage; 0=no damage), read-out: Percentage damage ECHCG. Here is the method: as §1, with “one day” for “8 days”
as §3

Experiment [12] concerns Ipomea hederaceae (IPOHE). Described as above. To be noted: Ipomoea hederacea, 312 h; pre-emergence, 1,000 g/ha, evaluated after 13 days (100=total damage; 0=no damage); read-out: Percentage damage IPOHE. How it is done:
as §1, with “one day” for “8 days”
as §3

Regarding `COC(=O)c1nc(C2CC2)nc(N[C@@H](C)c2cccc(OC)c2)c1Cl` [4-180 (S), (S)-5-Chloro-2-cyclopropyl-6-methoxycarbonyl-4-[1-(3-methoxy-phenyl)ethylamino]-pyrimidine], the pest or weed control at 1000 g/ha with Solanum nigrum (SOLNI) [1] is 70%; with Setaria faberi (SETFA) [2], 30%; in experiment [3], 20%; in experiment [4], 80%; in [5] it was 50%; in [6], 80%. Moreover, the pest or weed control at 1000 g/ha stood at 10% in the experiment on Solanum nigrum (SOLNI) [7]; 0% in the experiment with Setaria faberi (SETFA) [8]; 0% in experiment [9]; 20% in experiment [10]; 0% in experiment [11]; 80% in experiment [12].

For `COC(=O)c1nc(C2CC2)nc(N[C@@H](C)c2ccc(OC)cc2)c1Cl` [4-181 (S), (S)-5-Chloro-2-cyclopropyl-6-methoxycarbonyl-4-[1-(4-methoxy-phenyl)ethylamino]-pyrimidine], the pest or weed control at 1000 g/ha with Solanum nigrum (SOLNI) [1] is 90%; in the experiment with Setaria faberi (SETFA) [2] it was 40%; in experiment [3], 30%; in experiment [4], 100%; in experiment [5] it was 50%; in experiment [6] it was 90%. Also, the pest or weed control at 1000 g/ha in the experiment with Solanum nigrum (SOLNI) [7] was 60%; in the experiment with Setaria faberi (SETFA) [8], 0%; in [9] it was 20%; in experiment [10] it was 60%; in experiment [11], 50%; in experiment [12], 80%.

As to `COC(=O)c1nc(C2CC2)nc(N[C@H](C)c2cccc3ccccc23)c1Cl` [4-184 (R), (R)-5-Chloro-2-cyclopropyl-6-methoxycarbonyl-4-[1-(naphth-1-yl)ethylamino]-pyrimidine], the pest or weed control at 1000 g/ha was 60% in the experiment on Solanum nigrum (SOLNI) [1]; 20% with Setaria faberi (SETFA) [2]; 10% in experiment [3]; 80% in [4]; 40% in experiment [5]; 70% in [6]. Moreover, the pest or weed control at 1000 g/ha (with Solanum nigrum (SOLNI) [7]; in the experiment on Setaria faberi (SETFA) [8]; in [9]; in experiment [10]; in experiment [11]; in experiment [12]) was 0% throughout.

Consider `COC(=O)c1nc(C2CC2)nc(N[C@H](C)c2ccc3ccccc3c2)c1Cl` [4-185 (R), (R)-5-Chloro-2-cyclopropyl-6-methoxycarbonyl-4-[1-(naphtha-2-yl)ethylamino]-pyrimidine], for which the pest or weed control at 1000 g/ha in the experiment with Solanum nigrum (SOLNI) [1] stood at 40%; with Setaria faberi (SETFA) [2], 0%; in experiment [3], 0%; in [4], 80%; in experiment [5], 0%; in [6] it was 70%. The pest or weed control at 1000 g/ha in the experiment with Solanum nigrum (SOLNI) [7] was 0%; with Setaria faberi (SETFA) [8], 0%; in experiment [9] it was 0%; in experiment [10], 0%; in experiment [11], 0%; in [12] it was 70%.

`COC(=O)c1nc(C2CC2)nc(N[C@@H](CO)c2ccccc2)c1Cl` [4-203 (R), 5-Chloro-2-cyclopropyl-4-[(1R)-2-hydroxy-1-phenyl-ethylamino]-6-methoxycarbonyl-pyrimidine]: the pest or weed control at 1000 g/ha in the experiment on Solanum nigrum (SOLNI) [1] came out at 80%; with Setaria faberi (SETFA) [2], 40%; in experiment [3], 20%; in [4], 100%; in experiment [5], 30%; in experiment [6] it was 50%. Further, the pest or weed control at 1000 g/ha came to 80% with Solanum nigrum (SOLNI) [7]; 30% in the experiment on Setaria faberi (SETFA) [8]; 20% in [9]; 90% in experiment [10]; 20% in experiment [11]; 100% in experiment [12].

Turning to `COC(=O)c1nc(C2CC2)nc(N[C@H](CO)c2ccccc2)c1Cl` [4-203 (S), 5-Chloro-2-cyclopropyl-4-[(1S)-2-hydroxy-1-phenyl-ethylamino]-6-methoxycarbonyl-pyrimidine], the pest or weed control at 1000 g/ha was found to be 80% with Solanum nigrum (SOLNI) [1]; 50% in the experiment on Setaria faberi (SETFA) [2]; 30% in experiment [3]; 100% in [4]; 30% in experiment [5]; 70% in [6]. Also, the pest or weed control at 1000 g/ha with Solanum nigrum (SOLNI) [7] stood at 80%; with Setaria faberi (SETFA) [8] it was 40%; in experiment [9], 20%; in [10] it was 70%; in experiment [11] it was 20%; in experiment [12], 80%.

Regarding `COC(=O)c1nc(C2CC2)nc(N[C@@H](C)[C@H](O)c2ccccc2)c1Cl` [4-270 (1S,2R), 5-Chloro-2-cyclopropyl-4-[(1S, 2R)-2-hydroxy-1-methyl-2-phenyl-ethylamino]-6-methoxycarbonyl-pyrimidine], the pest or weed control at 1000 g/ha was found to be 100% with Solanum nigrum (SOLNI) [1]; 80% in the experiment with Setaria faberi (SETFA) [2]; 40% in [3]; 100% in [4]; 30% in experiment [5]; 100% in experiment [6]. Also, the pest or weed control at 1000 g/ha in the experiment on Solanum nigrum (SOLNI) [7] is 80%; in the experiment on Setaria faberi (SETFA) [8], 30%; in experiment [9], 20%; in experiment [10], 70%; in experiment [11], 20%; in experiment [12], 100%.

Turning to `COC(=O)c1nc(C2CC2)nc(N[C@H](C)[C@@H](O)c2ccccc2)c1Cl` [4-270 (erythro), 5-Chloro-2-cyclopropyl-4-(erythro-2-hydroxy-1-methyl-2-phenyl-ethylamino)-6-methoxycarbonyl-pyrimidine], the pest or weed control at 1000 g/ha turned out to be 80% in the experiment with Solanum nigrum (SOLNI) [1]; 80% in the experiment with Setaria faberi (SETFA) [2]; 30% in experiment [3]; 100% in experiment [4]; 60% in experiment [5]; 100% in [6]. The pest or weed control at 1000 g/ha stood at 80% in the experiment with Solanum nigrum (SOLNI) [7]; 30% in the experiment on Setaria faberi (SETFA) [8]; 30% in experiment [9]; 80% in experiment [10]; 30% in experiment [11]; 100% in experiment [12].
